Experimental data as given in ChEMBL document CHEMBL1132603.

Experiments:
[1] = biological target: D(2) dopamine receptor (Rattus norvegicus) (UniProt P61169); assay: Inhibition of [3H]spiperone binding to rat striatal membrane Dopamine receptor D2
[2] = biological target: D(1A) dopamine receptor (Rattus norvegicus) (UniProt P18901); assay: Inhibition of [3H]SCH-23390 binding to rat striatal membrane Dopamine receptor D1
[3] = biological target: D(3) dopamine receptor (Rattus norvegicus) (UniProt P19020); conditions: C6
Description: Affinity on C6 glioma cells transfected with Dopamine receptor D3

[4] = biological target: D(2) dopamine receptor (Rattus norvegicus) (UniProt P61169); assay: Affinity on C6 glioma cells transfected with Dopamine receptor D2L; format: cell-based

D(1A) dopamine receptor (Rattus norvegicus), sequence (P18901 whole entry): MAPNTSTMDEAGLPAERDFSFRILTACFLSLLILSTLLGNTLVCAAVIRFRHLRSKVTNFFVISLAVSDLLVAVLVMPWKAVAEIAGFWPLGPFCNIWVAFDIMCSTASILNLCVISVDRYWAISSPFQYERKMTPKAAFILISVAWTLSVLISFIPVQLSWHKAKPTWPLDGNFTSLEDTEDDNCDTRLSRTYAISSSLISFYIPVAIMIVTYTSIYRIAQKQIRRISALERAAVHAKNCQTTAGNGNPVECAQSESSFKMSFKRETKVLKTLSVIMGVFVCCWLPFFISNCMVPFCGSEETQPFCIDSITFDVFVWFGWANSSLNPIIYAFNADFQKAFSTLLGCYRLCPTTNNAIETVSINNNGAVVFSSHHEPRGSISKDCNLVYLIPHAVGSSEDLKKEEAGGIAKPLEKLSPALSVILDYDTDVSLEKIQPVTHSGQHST
D(2) dopamine receptor (Rattus norvegicus), sequence (P61169 whole entry): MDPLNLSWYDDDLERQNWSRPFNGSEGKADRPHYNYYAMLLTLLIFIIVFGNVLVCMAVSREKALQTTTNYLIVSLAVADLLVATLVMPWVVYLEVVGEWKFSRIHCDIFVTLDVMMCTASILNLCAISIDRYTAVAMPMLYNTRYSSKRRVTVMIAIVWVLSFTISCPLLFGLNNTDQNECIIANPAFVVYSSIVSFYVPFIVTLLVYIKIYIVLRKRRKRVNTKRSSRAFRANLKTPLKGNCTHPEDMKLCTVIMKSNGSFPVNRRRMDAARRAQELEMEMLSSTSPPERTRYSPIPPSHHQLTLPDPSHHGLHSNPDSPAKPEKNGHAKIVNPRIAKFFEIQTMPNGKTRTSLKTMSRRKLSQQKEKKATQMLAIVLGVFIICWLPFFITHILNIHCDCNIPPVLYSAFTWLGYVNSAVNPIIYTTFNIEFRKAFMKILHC
D(3) dopamine receptor (Rattus norvegicus), sequence (P19020 whole entry): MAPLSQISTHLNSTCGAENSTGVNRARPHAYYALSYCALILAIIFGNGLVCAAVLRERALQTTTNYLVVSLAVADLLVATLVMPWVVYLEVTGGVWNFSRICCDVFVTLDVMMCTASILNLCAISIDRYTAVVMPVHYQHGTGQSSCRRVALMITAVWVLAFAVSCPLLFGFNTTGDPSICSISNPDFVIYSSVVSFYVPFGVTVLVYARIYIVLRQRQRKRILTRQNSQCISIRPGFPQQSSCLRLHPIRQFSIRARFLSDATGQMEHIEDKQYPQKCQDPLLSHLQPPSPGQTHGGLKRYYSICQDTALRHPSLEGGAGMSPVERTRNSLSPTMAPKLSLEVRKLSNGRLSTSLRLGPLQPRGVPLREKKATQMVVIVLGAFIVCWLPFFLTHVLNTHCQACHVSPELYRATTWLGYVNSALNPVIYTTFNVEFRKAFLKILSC

| Structure (SMILES) | K 0.5 [1] [nM] | K 0.5 [2] [µM] | K 0.5 [3] [nM] | K 0.5 [4] [nM] |
| --- | --- | --- | --- | --- |
| CCCN1Cc2ccccc2[C@@H]2Cc3n[nH]cc3C[C@H]21 | 209 | > 5 | 162 | 4300 |
| CN1Cc2ccccc2[C@@H]2Cc3n[nH]cc3C[C@H]21 | 189 | > 5 | 187 | 3090 |
| Oc1ccc2c(c1O)Cc1cccc3c1[C@H]2CNC3 |  |  |  | 174 |
| Oc1cc2c(cc1O)[C@H]1c3ccccc3CN[C@@H]1CC2 |  |  | 170 | 1490 |
| C=CCN1Cc2ccccc2[C@@H]2Cc3nc(N)ncc3C[C@H]21 | 102 | > 5 | 15.8 | > 5000 |
| Nc1ncc2c(n1)C[C@H]1c3ccccc3CN[C@@H]1C2 | 467 | > 5 | 324 |  |
| C=CCN1Cc2ccccc2[C@@H]2Cc3n[nH]cc3C[C@H]21 | 100 | > 5 | 73.7 | 1880 |
| CCCN1Cc2ccccc2[C@@H]2Cc3nc(N)ncc3C[C@H]21 | 45 | > 5 | 20.2 | > 5000 |
| c1ccc2c(c1)CN[C@@H]1Cc3c[nH]nc3C[C@@H]21 | 641 | > 5 | 955 | > 5000 |
| CCCN1CCC[C@@H]2Cc3nc(N)ncc3C[C@H]21 | 4.78 | > 5 |  | 710 |
| O=C(CCCN1CCC2(CC1)C(=O)NCN2c1ccccc1)c1ccc(F)cc1 | 0.21 |  |  | 0.16 |
| CN1CCc2cc(Cl)c(O)cc2[C@@H](c2ccccc2)C1 |  | 0.0004 |  |  |
